Data on four molecules can be found in patent publication US10940188B2, “Compounds and methods for treatment and prevention of Flavivirus infection” (priority 2016, dated 2021).

Molecules are shown by their SMILES. Read-outs that look alike come from different tables or passages of the source.

The test system of assay [1] is ZIKV (FSS13025, PRVABC59, MR766) in SNB-19 cells. The assay is described as follows: Anti-ZIKV activity in SNB-19 cells (NS1 Western blot, NS1 ELISA, immunofluorescence). Type of assay: cell-based, Zika virus. Particulars: for time-of-addition effect on ZIKV infection / IC50: SNB-19 cells; for time-of-addition effect on ZIKV infection: PRVABC59, added 1 hour before or 4 hours after inoculation; for anti-ZIKV activity in SNB-19 cells: compound added 1 hour prior to infection; for IC50: all three strains of ZIKV, read-out: IC50 of inhibition of ZIKV (NS1 read-out). As to the method: FIGS. 2A-1, 2A-2, 2B-1, 2B-2, 2C-1, 2C-2, 2D-1, 2D-2, 2D-3, 2E-1, 2E-2, and 2F. […] Screening of select compounds for antiviral activity against ZIKV infection was carried out. Glioblastoma SNB-19 cells were treated with indicated compound at 10×AC50 (determined in the primary caspase screen) for 1 hour prior to inoculation with FSS-13025 (at MOI=1). Cells were harvested 24 hours post infection and analyzed by Western blot for ZIKV-NS1 or GAPDH (FIGS. 2A-1 and 2A-2). […] Three strains of virus (FSS-13025, PRVABC59, and MR766; MOI=1) were tested. Shown are sample western blot images (FIG. 2B-1) and ImageJ quantification (FIG. 2B-2). Values represent mean±s.d. (n=3; ***P<0.001; One-way ANOVA). Titration of Emricasan on SNB-19 cells for anti-ZIKV activity was conducted similarly (FIGS. 2C-1 and 2C-2). Values represent mean±s.d. […] Sample western blot (FIG. 2D-2) and ImageJ quantification (FIG. 2D-3) are shown for infection with the PRVABC59 strain (MOI=1). Results for additional strains are shown in FIGS. 6A-F. Values represent mean±s.d. (n=2; **P<0.01; ***P<0.001; One-way ANOVA). […] The concentration of NS1 in the medium of infected SNB-19 cells collected 24 hours post-infection was quantified by a ZIKV-NS1 ELISA kit (FIGS. 2E-1 and 2E-2). Values represent mean±s.d. (n=3; ***P<0.001; One-way ANOVA). […] SNB-19 cells were treated with each indicated compound at increasing concentrations for 1 hour before infection with PRVABC59 at a MOI=0.5 (n=3 cultures). Cell culture supernatant was collected 24 hours after infection, and infectious virions were quantified for focus-forming units (FFU) using Vero cells. Data represent mean±s.d.
FIGS. 3A, 3B, 3C-1, 3C-2, 3C-3, 3C-4, 3C-5, 3D-1, 3D-2, and 3E. […] SNB-19 cells were treated with the indicated compound at 92 μM for one hour prior to infection with FSS13025 or PRVABC59 (MOI=1). Cells were harvested 24 hours post infection and analyzed by western blot for ZIKV-NS1 or GAPDH. Shown are sample images and quantification (FIGS. 3D-1 and 3D-2). Values represent mean±s.d. (n=2; ***P<0.01; One-way ANOVA). Data were normalized to those obtained for DMSO-treated cells. Values represent mean±s.d. *P<0.05; **P<0.01; ***P<0.001; by one-way ANOVA, as compared to DMSO-treated cells.
FIGS. 18A, 18B, 18C-1, 18C-2, 18D, 18E, 18F, 18G-1, and 18G-2. […] 24 hours post infection, supernatants from SNB-19 cells were titrated onto naïve vero cells plated in a monolayer in 96-well plates for infectious focus-forming unit assay as previously described and focus forming units quantified. […] Immunofluorescence (IF) staining (FIG. 18C-1) and quantification (FIG. 18C-2) of ZIKV positive SNB-19 cells following infection with one of three ZIKV strains and treatment with emetine at 0.01, 0.1, or 1 μM. […] Drug was added at 1 μM either 1-hour prior to infection with PRVABC59-ZIKV, or 4-hours post infection with PRVABC59-ZIKV. […] Drug was added at 1 μM either 1-hour prior to infection with PRVABC59-ZIKV, or 4-hours post infection with PRVABC59-ZIKV.
Cells were harvested by trypsinization, pelleting, and subsequent lysis in 1× Laemlli buffer and boiled, or directly lysed in 1× Laemlli buffer and boiled. Antibodies used were anti-ZIKV NS1 (1:2000; BF-1225-36, BioFront Technologies, Tallahassee, Fla.) or GAPDH (Santa Cruz Biotechnology, Texas).
A general note: Immunoblotting shows a protein as a band on a membrane.

The test system of assay [2] is ZIKV-induced cell death in human astrocytes. The assay is described as follows: ATP cell viability assay for ZIKV-induced cell death, human astrocytes. Type of assay: cell-based.
In assay [3] the test system is ZIKV-induced caspase 3/7 activity in SNB-19 cells. The assay is described as follows: Caspase 3/7 activity assay, ZIKV-infected SNB-19 cells. The class given is cell-based. Particulars: for Emax: read-out: Caspase 3 (efficacy, %) SNB-19. The gist of the method: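 Human NPCs, SNB-19 cells or astrocytes seeded 16 h, compound added 30 min before ZIKV, then 6 h infection at 37 °C. Caspase-Glo 3/7 luminescence after 30 min at room temperature, normalized to uninfected cells (0%) and ZIKV-infected cells (100%).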

[4] abbreviates: Astrocyte, ZIKV-infected human astrocytes, read-out: Cell viability (IC50, uM) Astrocyte.
[5] abbreviates: Homo sapiens, Astrocyte, following ZIKV infection, read-out: IC50 (μM) for improving cell viability, Astrocytes.
Where [6] appears, read: Homo sapiens, ZIKV-infected SNB-19 cells, read-out: Caspase 3 (IC50, uM) SNB-19.
The mark [7] stands for this setting: Homo sapiens, ZIKV-infected SNB-19 cells.

Consider `CC[C@H]1CN2CCc3cc(OC)c(OC)cc3[C@@H]2C[C@@H]1C[C@H]1NCCc2cc(OC)c(OC)cc21` [Emetine], for which, in assay [1], the “time-of-addition effect on ZIKV infection” value (“time-of-addition effect” for short) is given as “effective against ZIKV infection when added both before or after infection” and the “anti-ZIKV activity in SNB-19 cells” value is listed as “reduces ZIKV infection in a dosage dependent manner”.

For `C[C@H](NC(=O)C(=O)Nc1ccccc1C(C)(C)C)C(=O)N[C@@H](CC(=O)O)C(=O)COc1c(F)c(F)cc(F)c1F` [Emricasan], the IC50 (usually the concentration that inhibits the measured activity by half) in assay [2] (setting [4]) is 4.11 µM; in assay [2] (setting [5]), 4.11 µM; in assay [3] (Homo sapiens, SNB-19 cells, three ZIKV strains MR766, FSS13025, PRVABC59, read-out: IC50 in the caspase activity assay), 0.13 to 0.9 µM; in assay [3] (setting [6]) it was 0.62 µM. For the same molecule, the “Cell viability (efficacy, %) Astrocyte” value in assay [2] (ZIKV-infected human astrocytes) stood at 98.7%. Moreover, the Emax in assay [3] (setting [7]) was 97.6%. In addition, the “anti-ZIKV activity in SNB-19 cells” value in assay [1] is given as “no significant differences were found”.

Regarding `O=C(Nc1ccc([N+](=O)[O-])cc1Cl)c1cc(Cl)ccc1O` [Niclosamide], the IC50 in assay [2] (setting [4]) is 1.73 µM; in assay [2] (setting [5]) it was 1.73 µM; in assay [3] (setting [6]) it was 2.06 µM; in assay [1] (Zika virus) it was 0.5 to 2 µM. The “Cell viability (efficacy, %) Astrocyte” value in assay [2] (ZIKV-infected human astrocytes) came out at 51.2%. The Emax in assay [3] (setting [7]) was found to be 93.9%. In addition, the “time-of-addition effect” value in assay [1] was “effectively inhibited ZIKV infection when added either 1 hour before or 4 hours after virus inoculation”. Besides, the “anti-ZIKV activity in SNB-19 cells” value in assay [1] was “significantly inhibited ZIKV infection in SNB-19 cells”.

As to `CC(=O)Nc1ccc([C@H](C)C(=O)Nc2ncc(C(C)C)s2)cc1` [PHA-690509], the “Cell viability (efficacy, %) Astrocyte” value in assay [2] (ZIKV-infected human astrocytes) is 81.9%. For the same molecule, the IC50 in assay [2] (ZIKV-infected human astrocytes, read-out: Cell viability (IC50, uM) Astrocyte) was 7.74 µM; in assay [2] (following ZIKV infection, read-out: IC50 (μM) for improving cell viability, Astrocytes), 7.47 µM; in assay [3] (ZIKV-infected SNB-19 cells, read-out: Caspase 3 (IC50, uM) SNB-19), 9.2 µM; in assay [1], 12 to 36 µM. Further, the “Caspase 3 (efficacy, %) SNB-19” value in assay [3] (ZIKV-infected SNB-19 cells) was 74.6%. The “time-of-addition effect” value in assay [1] is on record as “effectively inhibited ZIKV infection when added either 1 hour before or 4 hours after virus inoculation”. Further, the “anti-ZIKV activity in SNB-19 cells” value in assay [1] is given as “significantly inhibited ZIKV infection in SNB-19 cells”.
